Read-outs that look alike come from different tables or passages of the source. Non-standard residues stand in square brackets, D forms with d. Residues, ends and D or L forms follow the SMILES beside them. ξ: configuration not given here. *: point of attachment. Dolaproine = CO[C@@H]([C@@H]1CCCN1)[C@@H](C)C(=O)O; Dil = CC[C@H](C)[C@H](NC)[C@@H](CC(=O)O)OC; NH(4-aminobenzyl) = Nc1ccc(CN*)cc1; NMe2Val = CC(C)[C@@H](C(=O)*)N(C)C; β3hF = N[C@H](CC(=O)O)Cc1ccccc1; ξF = NC(Cc1ccccc1)C(=O)O
What was measured:
[1] = test system: MDA-MB-468 (Trop-2 positive cell lines); test: In-vitro cell activity test (CCK8), MDA-MB-468; type: cell-based; settings: Homo sapiens, 96 h; MDA-MB-468, 7500 cells/well, 4 days; read-out: EC50 (nM), killing effects of bioactive molecules on cells
Protocol: (§1) First, tumor cells MDA-MB-468 (Trop-2 positive cell lines) and HCC1806 (Trop-2 positive cell lines) were cultured. The bioactive molecules and ADC molecules disclosed in the disclosure were co-cultured with the tumor cells, then a CCK8 reagent (Dojindo Molecular Technologies, Inc., Cat: CK04, Lot:JJ744) was added. The activity of dehydrogenase in mitochondria was tested through readings (detection wave length was 450 nm) from a microplate reader (manufacturer: Molecular Devices, model: SpectraMax M2) so as to evaluate the inhibitory effect of ADC on cell proliferation.
(§2) In-vitro cell activity testing: bioactive molecules or ADCs were diluted (12 concentration gradients) with corresponding test media (containing 2% FBS). The tumor cells were trypsinized with trypsin by a conventional method, collected and counted, and then resuspended with corresponding test media (containing 2% FBS). Diluted bioactive molecules or ADCs were added to a 96-well plate, and then cells were added. 20 μL of the CCK8 reagent was added to each well and reacted for 4 h, and readings (detection wavelength was 450 nm) were taken from a microplate reader.

[2] = test system: HCC1806 (Trop-2 positive cell lines); test: In-vitro cell activity test (CCK8), HCC1806; type: cell-based; settings: Homo sapiens, read-out: EC50 (nM), killing effects of bioactive molecules on cells
Protocol: as §1, §2

[3] = test system: human gastric cancer cell line NCI-N87; test: Experimental example 1: NCI-N87 gastric cancer subcutaneous xenograft, tumor inhibition; type: in vivo, Balb/c-nu mice; settings: D21 after administration; IV, BIW×3W; BT001021 and Immu-132 3 mg/kg, toxins T-030 and SN-38 equimolar to ADC
Protocol: Tumor-bearing mice (6 mice/group) with tumor volume of 100-200 mm^3 were randomly grouped (the number of groups was determined according to sample number). The administration volume was 10 ml/kg, and the administration route was tail intravenous injection. The mice were administered twice a week, and tumor diameter was measured with a vernier caliper, and tumor volume was calculated based on the following calculation formula: V=0.5 a×b^2, wherein a and b stand for the long diameter and short diameter of a tumor respectively. Animal deaths were observed and recorded every day.
The tumor growth inhibition rate TGI (%) was calculated from the following formula to evaluate tumor inhibitory effect of antibody drug conjugates:
Specifically, in the experimental examples 1 and 2, tumor-bearing mice models were constructed by subcutaneous xenograft of a human gastric cancer cell line NCI-N87 or a human triple negative breast cancer cell line HCC1806. After the tumor volume was about 100 mm^3, the mice were randomly grouped, and intravenously administered with BT001021 twice a week for a total of 6 times. Changes in tumor volume and animal body weight were measured twice a week to evaluate the efficacy (tumor inhibitory effect) of the antibody drug conjugate on tumor-bearing mice.
NCI-N87 cells were cultured in a 1640 culture medium containing 10% fetal bovine serum at 37° C. and 5% CO2. NCI-N87 cells in the exponential growth stage were collected, resuspended in PBS to a suitable concentration, and inoculated subcutaneously into female Balb/c-nu mice to construct gastric cancer models. When the mean tumor volume was about 90 mm^3, the mice were randomly grouped into a physiological saline group, a BT001021 (3 mg/kg, IV, BIW×3W) group, a positive drug Immu-132 (3 mg/kg, IV, BIW×3W) group, a T030 group and a SN38 group according to the tumor size, followed by tail intravenous injection of corresponding drugs twice a week for a total of 6 times. After administration, the tumor volume and body weight of the mice were observed and measured regularly.

[4] = Experimental example 6: pharmacokinetics of BT001021 and T-030 in NCI-N87 tumor-bearing mice (T-030 in tumor and serum, LC-MS/MS); type: in vivo, Balb/c-nu mice; settings: T-030 0.23 mg/kg, single dose; for Cmax / AUC(0-t) / MRT inf / half-life: iv, 0.23 mg/kg; for AUC(0-t): read-out: AUClast (h*ng/ml) of T-030; for MRT inf: read-out: MRTINF (h) of T-030; for half-life: read-out: T1/2 (h) of T-030 (converted)
Description: Experimental example 6 was used to evaluate pharmacokinetics of antibody drug conjugates and bioactive molecules in vivo. Specifically, in the experiment, a tumor-bearing mice model was constructed by subcutaneous xenograft of a human gastric cancer cell line NCI-N87 to Balb/c-nu mice. After the tumor volume was 100-200 mm^3, the mice were randomly grouped, and intravenously administrated with a single dose of BT001021 and T-030. The concentration of the T-030 in tumor tissues and serum was determined to evaluate the pharmacokinetics in vivo of the antibody conjugate BT001021 and the bioactive molecule T-030 in the tumor-bearing mice.
Tumor-bearing mice (4 mice/group) with tumor volume of 100-200 mm^3 were randomly grouped (the number of groups was determined according to sample number), and the administration route was single tail intravenous injection.
NCI-N87 cells were cultured in a 1640 culture medium containing 10% heat-inactivated fetal bovine serum at 37° C. and 5% CO2. NCI—N87 cells in the exponential growth stage were collected, resuspended in PBS to a suitable concentration, and inoculated subcutaneously into Balb/c-nu mice to construct xenograft models of […]. When the mean tumor volume was about 100-200 mm^3, the mice were randomly grouped into a physiological saline group, a T-030 (0.23 mg/kg, IV, single dose) group and a BT001021 (10 mg/kg, IV, single dose) group according to the tumor size, followed by tail intravenous injection of corresponding drugs. For the T-030 group, serum and tumor tissues were collected 1 h, 2 h, 4 h, 8 h, 24 h and 72 h after administration (T-030 was not detected in the serum and tumor tissues 72 h after administration, therefore, serum and tumor tissues were not collected 168 h after administration). For BT001021 group, serum and tumor tissues were collected 1 h, 2 h, 4 h, 8 h, 24 h, 72 h and 168 h after administration to test the concentration of the T-030 in the serum and the tumors by LC-MS/MS. The administration dose of the T-030 (0.23 mg/kg) was converted to isomolar dose (10 mg/kg) of BT001021.

[5] = Balb/c-nu, mouse, in vivo, Serum
[6] = Balb/c-nu, mouse, in vivo, Tumor

CC[C@H](C)[C@@H]([C@@H](CC(=O)N1CCC[C@H]1[C@H](OC)[C@@H](C)C(=O)NC(Cc1ccccc1)C(=O)NCc1ccc(N)cc1)OC)N(C)C(=O)[C@@H](NC(=O)[C@H](C(C)C)N(C)C)C(C)C (stereo partly drawn) [T001, (2S)—N-((3R,4S,5S)-1-((2S)-2-((1R,2R)-3-((1-((4-aminobenzyl)amino)-1-oxo-3-phenylpropan-2-yl)amino)-1-methoxy-2-methyl-3-propionyl)pyrrolidin-1-yl)-3-methoxy-5-methyl-1-heptanoyl-4-yl)-2-((S)-2-(dimethylamino)-3-methylbutyrylamino)-N,3-dimethylbutyramide] (NMe2Val-V[Dil][Dolaproine][ξF]-{NH(4-aminobenzyl)})
EC50 [1]: 1.13 nM

CC[C@H](C)[C@@H]([C@@H](CC(=O)N1CCC[C@H]1[C@H](OC)[C@@H](C)C(=O)N[C@H](CC(=O)NCc1ccc(N)cc1)Cc1ccccc1)OC)N(C)C(=O)[C@@H](NC(=O)[C@H](C(C)C)N(C)C)C(C)C [T013] (NMe2Val-V[Dil][Dolaproine][β3hF]-{NH(4-aminobenzyl)})
EC50 [1]: 0.414 nM

CC[C@H](C)[C@@H]([C@@H](CC(=O)N1CCC[C@H]1[C@H](OC)[C@@H](C)C(=O)NCC(=O)NCc1ccc(N)cc1)OC)N(C)C(=O)[C@@H](NC(=O)[C@H](C(C)C)N(C)C)C(C)C [T015] (NMe2Val-V[Dil][Dolaproine]G-{NH(4-aminobenzyl)})
EC50 [1]: 7.43 nM

CC[C@@]1(O)C(=O)OCc2c1cc1n(c2=O)Cc2c-1nc1ccccc1c2CCN(C(C)=O)C(C)C [T-028, (S)—N-(2-(4-ethyl-4-hydroxyl-3,14-dione-3,4,12,14-tetrahydro-1H-pyrano [3′,4′,6,7]indolizino[1,2-b]quinolin-11-yl)ethyl)-N-isopropylacetamide]
EC50 ([2]; HCC1806, 72 h): 6.02 nM

CC[C@H](C)[C@@H]([C@@H](CC(=O)N1CCC[C@H]1[C@H](OC)[C@@H](C)C(=O)N[C@H](Cc1ccccc1)C(=O)NCc1ccc(N)cc1)OC)N(C)C(=O)[C@@H](NC(=O)[C@H](C(C)C)N(C)C)C(C)C [T012] (NMe2Val-V[Dil][Dolaproine][dF]-{NH(4-aminobenzyl)})
EC50 [1]: 1.62 nM

CC[C@H](C)[C@@H]([C@@H](CC(=O)N1CCC[C@H]1[C@H](OC)[C@@H](C)C(=O)N[C@@H](Cc1ccccc1)C(=O)NCc1ccc(N)cc1)OC)N(C)C(=O)[C@@H](NC(=O)[C@H](C(C)C)N(C)C)C(C)C [T011] (NMe2Val-V[Dil][Dolaproine]F-{NH(4-aminobenzyl)})
EC50 [1]: 0.211 nM

CCc1c2c(nc3ccc(O)cc13)-c1cc3c(c(=O)n1C2)COC(=O)[C@]3(O)CC [SN-38]
Tumor Volume (mm^3) (x ± S) [3]: 416.11 ± 195.15 mm^3 | Tumor growth inhibition rate (%) [3]: −2.75%

CC[C@@]1(O)C(=O)OCc2c1cc1n(c2=O)Cc2c-1nc1ccccc1c2CCN(C(C)C)S(C)(=O)=O [T-030, (S)—N-(2-(4-ethyl-4-hydroxyl-3,14-dione-3,4,12,14-tetrahydro-1H-pyrano[3′,4′,6,7]indolizino[1,2-b]quinolin-11-yl)ethyl)-N-isopropylmethanesulfonamide]
EC50 ([2]; 72 h, HCC1806, 7500 cells/well, 3 days): 6.73 nM | Tumor Volume (mm^3) (x ± S) [3]: 339.02 ± 152.80 mm^3 | Tumor growth inhibition rate (%) [3]: 21.48% | T-030 in the serum and tumor tissues ([4]; 72 h after administration, IV): not detected | Cmax [4, 5]: 1.81 ng/mL | AUC(0-t) [4, 5]: 5.58 ng·h/mL | MRT inf [4, 5]: 1.11 h | half-life [4, 5]: 1.76 h | Cmax [4, 6]: 1.2 ng/mL | AUC(0-t) [4, 6]: 3.85 ng·h/mL | MRT inf [4, 6]: 1.52 h | half-life [4, 6]: 2.55 h | Tmax ([4]; Balb/c-nu, mouse, in vivo, Tumor, IV): 1 h

Reference: patent publication US20240382612A1, “BIOACTIVE CONJUGATE, PREPARATION METHOD THEREFOR AND USE THEREOF” (priority 2017, published 2024)
